Entries after “also recorded” stand apart in the source; their conditions may differ. Where two headings read alike, the source gives them in different places.
Legend:
5-HT2A [1] = assay: Ca2+ flux assay, 5-HT2A; format: cell-based, human; settings: Gq/11 Ca2+ mobilization; higher number = skewed towards 5-HT2A
Procedure: (§1) Cell lines were maintained in DMEM containing 10% FBS, 10 μg/mL Blasticidin (Invivogen), and 100 μg/mL Hygromycin B (GoldBio). At least 20-24 hours before the assay, receptor expression was induced with tetracycline ([…]) and cells were seeded into 384-well poly-L-lysine-coated black plates at a density of 7,500 cells/well in DMEM containing 1% dialyzed FBS. On the day of the assay, the cells were incubated for 1 h at 37° C. with Fluo-4 Direct dye (Invitrogen, 20 μl/well) reconstituted in drug buffer (20 mM HEPES-buffered HBSS, pH 7.4) containing 2.5 mM probenecid. Drug dilutions were prepared at 5X final concentration in McCorvy buffer (20 mM HEPES-buffered HBSS, 0).1% BSA, 0.01% ascorbic acid pH 7.4). After dye load, cells were allowed to equilibrate to room temperature for 15 minutes, and then placed in a FLIPR^TETRA fluorescence imaging plate reader (Molecular Devices). Fluorescence for the FLIPR^TETRA were programmed to read baseline fluorescence for 10 s (1 read/s), and afterward 5 μl of drug per well was added and read for a total of 5-10 min (1 read/s). Fluorescence in each well was normalized to the average of the first 10 reads for baseline fluorescence, and then either maximum-fold peak increase over basal or area under the curve (AUC) was calculated. […] Data was plotted and non-linear regression was performed using “log(agonist) vs. response” in Graphpad Prism 8 to yield Emax and EC50 parameter estimates.

male C57BL/6J mice = assay: Head-twitch response (HTR) in mice; format: in vivo, mouse; settings: for ED50: Mus musculus
Procedure: Male C57BL/6J mice (6-8 weeks old) from Jackson Labs (Bar Harbor, ME, USA) were used for the behavioral experiments. The mice were housed on a reversed light-dark cycle (lights on at 1900 h, off at 0700 h) in an AAAC-approved vivarium at the University of California San Diego. Mice were housed up to four per cage in a climate-controlled room and with food and water provided ad libitum except during behavioral testing. Testing was performed between 1000 and 1800 h (during the dark phase of the light-dark cycle). The studies were conducted in accordance with National Institutes Health (NIH) guidelines and were approved by the University of California San Diego Institutional Animal Care and Use Committee.
The mice were allowed to recover from the magnet implantation surgeries for at least 1 week prior to behavioral testing. HTR experiments were conducted in a well-lit room, and the mice were allowed to habituate to the room for at least 1 h prior to testing. Head twitches was assessed in a 12-cm diameter glass cylinder surrounded by a magnetometer coil. Coil voltage was low-pass filtered (2 kHz), amplified, and digitized (20-kHz sampling rate) using a Powerlab/8SP with LabChart v 7.3.2 (ADInstruments, Colorado Springs, CO, USA). […] HTR counts were analyzed using one-way ANOVAs. Dunnett's test was used for post hoc comparisons.

5-HT2A [2] = molecular target: T1, 5-HT2A (Homo sapiens, UniProt P28223); assay: Ca2+ flux assay, 5-HT2A; format: cell-based; set-up: expressed in transfected cells; settings: for Emax: read-out: 5-HT2A Emax % 5-HT, Ca2+ flux
T1 sequence (P28223 whole entry): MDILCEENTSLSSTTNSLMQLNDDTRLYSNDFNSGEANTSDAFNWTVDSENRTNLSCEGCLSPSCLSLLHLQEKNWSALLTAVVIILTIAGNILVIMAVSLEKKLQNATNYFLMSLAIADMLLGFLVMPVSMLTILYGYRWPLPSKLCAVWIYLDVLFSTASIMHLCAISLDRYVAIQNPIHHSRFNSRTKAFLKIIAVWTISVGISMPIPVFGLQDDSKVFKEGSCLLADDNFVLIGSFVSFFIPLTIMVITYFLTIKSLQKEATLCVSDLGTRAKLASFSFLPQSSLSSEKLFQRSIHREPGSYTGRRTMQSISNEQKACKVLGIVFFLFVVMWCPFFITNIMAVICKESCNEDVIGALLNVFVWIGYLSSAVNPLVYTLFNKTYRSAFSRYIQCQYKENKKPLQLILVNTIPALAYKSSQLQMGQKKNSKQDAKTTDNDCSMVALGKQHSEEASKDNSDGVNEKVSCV
Procedure: as §1

5-HT2B [3] = molecular target: T2, 5-HT2B (Homo sapiens, UniProt P41595); assay: Ca2+ flux assay, 5-HT2B; format: cell-based; set-up: expressed in transfected cells; settings: Ca2+ flux; for Emax: read-out: 5-HT2B Emax % 5-HT
T2 sequence (P41595 whole entry): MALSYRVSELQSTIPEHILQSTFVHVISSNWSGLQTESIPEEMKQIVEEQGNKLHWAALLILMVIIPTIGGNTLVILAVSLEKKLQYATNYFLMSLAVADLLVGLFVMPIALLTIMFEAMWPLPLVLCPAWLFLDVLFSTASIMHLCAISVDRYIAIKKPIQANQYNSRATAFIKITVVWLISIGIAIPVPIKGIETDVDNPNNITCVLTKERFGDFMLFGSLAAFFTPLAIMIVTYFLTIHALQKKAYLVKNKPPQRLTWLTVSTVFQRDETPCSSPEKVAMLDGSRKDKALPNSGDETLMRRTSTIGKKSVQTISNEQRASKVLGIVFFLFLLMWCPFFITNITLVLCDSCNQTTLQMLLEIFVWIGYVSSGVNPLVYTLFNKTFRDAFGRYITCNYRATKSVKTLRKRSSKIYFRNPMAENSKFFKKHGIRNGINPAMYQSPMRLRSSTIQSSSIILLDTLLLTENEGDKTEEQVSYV
Procedure: as §1

5-HT2C [4] = molecular target: T3, 5-HT2C (Homo sapiens, UniProt P28335); assay: Ca2+ flux assay, 5-HT2C; format: cell-based; set-up: expressed in transfected cells; settings: for EC50: 5-HT2C EC50, nM; for Emax: read-out: 5-HT2C Emax % 5-HT
T3 sequence (P28335 33-458): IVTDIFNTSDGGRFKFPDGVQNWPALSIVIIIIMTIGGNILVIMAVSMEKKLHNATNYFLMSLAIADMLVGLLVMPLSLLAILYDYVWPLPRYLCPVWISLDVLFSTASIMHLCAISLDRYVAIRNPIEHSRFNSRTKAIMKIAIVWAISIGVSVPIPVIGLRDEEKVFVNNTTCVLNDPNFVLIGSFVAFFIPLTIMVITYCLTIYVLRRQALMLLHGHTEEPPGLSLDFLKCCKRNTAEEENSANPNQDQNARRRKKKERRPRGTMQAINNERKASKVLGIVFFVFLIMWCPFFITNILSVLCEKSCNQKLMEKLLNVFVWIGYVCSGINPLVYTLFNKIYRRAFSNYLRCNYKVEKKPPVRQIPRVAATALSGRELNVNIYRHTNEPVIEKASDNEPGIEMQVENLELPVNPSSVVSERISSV
Procedure: as §1

5-HT2B [5] = molecular target: T2, 5-HT2B; assay: BRET Gq dissociation, 5-HT2B; format: cell-based; set-up: expressed in transfected cells; host or cells: HEK293T, transient; settings: for Emax: read-out: 5-HT2B Gq Dissociation (BRET) EMAX ± SEM (%5-HT)
5-HT2C [6] = molecular target: T3, 5-HT2C; assay: BRET Gq dissociation, 5-HT2C; format: cell-based; set-up: expressed in transfected cells; host or cells: HEK293T, transient; settings: for Emax: read-out: 5-HT2C Gq Dissociation (BRET) EMAX ± SEM (%5-HT)
5-HT2A [7] = molecular target: T1, 5-HT2A; assay: cell-based; set-up: expressed in transfected cells; host or cells: HEK293T, transient; settings: for Emax: read-out: 5-HT2A Gq Emax (% 5-HT), BRET, mean ± SEM
5-HT2A [8] = molecular target: T1, 5-HT2A; assay: cell-based; set-up: expressed in transfected cells; host or cells: HEK293T, transient; settings: for EC50: BRET, mean ± SEM, read-out: 5-HT2A β-arrestin recruitment pEC50 (converted); for Emax: read-out: 5-HT2A β-arrestin Emax (% 5-HT), BRET, mean ± SEM
[9] = read-out: HTR ED50 μmol/kg (95% CI), SC, except DOI and 25D-NBOMe IP
[10] = read-out: HTR ED50 mg/kg (95% CI), SC, except DOI and 25D-NBOMe IP
[11] = read-out: 5-HT2C Gq Dissociation (BRET) pEC50 ± SEM (converted)

SMILES | 5-HT2A/5-HT2c Selectivity Factor ΔLog(Emax/EC50) (5-HT2A [1]) | Max HTR response during a 30-min assessment (maximum counts ÷ baseline response) (male C57BL/6J mice) | ED50 (male C57BL/6J mice; [9]) [µmol/kg] | ED50 (male C57BL/6J mice; [10]) [mg/kg] | EC50 (5-HT2A [2]; 5-HT2A EC50, nM, Ca2+ flux) [nM] | Emax (5-HT2A [2]) [%] | 5-HT2B EC50, nM (5-HT2B [3]) | Emax (5-HT2B [3]) [%] | EC50 (5-HT2C [4]) [nM] | Emax (5-HT2C [4]) [%] | EC50 (5-HT2B [5]) [nM] | Emax (5-HT2B [5]) [%] | EC50 (5-HT2C [6]) [nM] | Emax (5-HT2C [6]) [%] | also measured
CCOc1ccccc1CNCCc1cc(OC)c([N+](=O)[O-])cc1OC [25N-NBOEt (5)] | 1.0 | 13.2-fold increase | 1.44 | 0.57 | 0.72 | 87 ± 2 | No activity | < 10 | 0.88 | 99 ± 1 | – | – | – | – | –
COc1cc([N+](=O)[O-])c(OC)cc1CCNCc1ccccc1C [25N-NBMe (6)] | 26.7 | 8.0-fold increase | 3.24 | 1.19 | 1.19 | 85 ± 1 | No activity | < 10 | 33.2 | 89 ± 2 | 9.55 | 22.2 ± 3.2 | 11.5 | 89.4 ± 2.3 | –
COc1cc([N+](=O)[O-])c(OC)cc1CCNCc1ccccc1F [25N-NBF (7)] | 18.9 | 4.5-fold increase | 4.1 | 1.52 | 1.56 | 84 ± 1 | No activity | < 10 | 28.8 | 82 ± 2 | 75.9 | 24.8 ± 3.2 | 14.1 | 83.1 ± 2.1 | –
COc1cc([N+](=O)[O-])c(OC)cc1CCNCc1ccccc1Br [25N-NBBr (9)] | 61.9 | 4.7-fold increase | 14.6 | 6.31 | 2.36 | 79 ± 2 | No activity | < 10 | 144 | 78 ± 2 | 245 | 17 ± 2.1 | 30.9 | 81 ± 2.3 | –
COc1cc([N+](=O)[O-])c(OC)cc1CCNCc1ccccc1OC(F)F [25N-NBOCF2H (11), {[2-(difluoromethoxy)phenyl]methyl}[2-(2,5-dimethoxy-4-nitrophenyl)ethyl]amine] | 1.9 | 13.5-fold increase | 4.32 | 1.81 | 1.92 | ≤ 77 | No activity | < 10 | 3.99 | 101 ± 1 | – | – | – | – | Induction of the HTR in mice (in words) (male C57BL/6J mice): lacked a HTR; also recorded: failed to induce a HTR; 5-HT2A Emax % 5-HT (5-HT2A [2]; Ca2+ flux): 95 ± 1 % 5-HT
COc1cc(OC)c(OC)cc1CCNCc1ccccc1-c1ccc(O)cc1 [(64)] | – | 2.1-fold increase | – | > 30 | – | – | – | – | – | – | – | 29.2 ± 10.6 | – | 80.6 ± 9.8 | EC50 (5-HT2A [7]): 617 nM; Emax (5-HT2A [7]): 43.6 ± 2.5%; EC50 (5-HT2A [8]): 11.7 nM; Emax (5-HT2A [8]): 80.5 ± 5.5%; EC50 (5-HT2B [5]; read-out: 5-HT2B Gq Dissociation (BRET) pEC50 ± SEM (converted)): 3020 nM; EC50 (5-HT2C [6]; [11]): 1700 nM
COc1cc([N+](=O)[O-])c(OC)cc1CCNCc1ccccc1O [25N-NBOH (3), 2-({[2-(2,5-dimethoxy-4-nitrophenyl)ethyl]amino}methyl)phenol] | 4.9 | 8.8-fold increase | 0.19 | 0.07 | – | 87 ± 2 | No activity | < 10 | 1.78 | 100 ± 2 | – | – | – | – | EC50 (5-HT2A [2]; 5-HT2A (pEC50 ± SEM), Ca2+ flux): 0.316 nM
COc1cc2c(cc1CCNCc1cccc3ccccc13)OCO2 [(39), [2-(6-methoxy-2H-1,3-benzodioxol-5-yl)ethyl][(naphthalen-1-yl)methyl]amine] | – | 1.4-fold increase | – | > 30 | – | – | – | – | – | – | – | – | – | 90.5 ± 2.3 | Induction of the HTR in mice (in words) (male C57BL/6J mice): failed to induce a HTR; EC50 (5-HT2A [7]; BRET, mean ± SEM, read-out: 5-HT2A Gq dissociation pEC50 (converted)): 15.5 nM; Emax (5-HT2A [7]): 26.4 ± 2%; EC50 (5-HT2A [8]): 5.89 nM; Emax (5-HT2A [8]): 80.1 ± 2.5%; 5-HT2B Gq Dissociation (BRET) EMAX ± SEM (%5-HT) (5-HT2B [5]): No activity; 5-HT2B Gq Dissociation (BRET) pEC50 ± SEM (5-HT2B [5]): No activity; EC50 (5-HT2C [6]; [11]): 17 nM

Source: US20240254087A1, “SELECTIVE, PARTIAL, AND ARRESTIN-BIASED 5-HT2A AGONISTS WITH UTILITY IN VARIOUS DISORDERS” (Saint Joseph's University, priority 2021, published 2024)
